# According to paper PMC5061470, “Promiscuous targeting of bromodomains by bromosporine identifies BET proteins as master regulators of primary transcription response in leukemia” (Science Advances, 2016):
# What was measured:
# [1] = molecular target: GABAA1 (h) (alpha 1,beta 2,gamma 2) (Homo sapiens, UniProt P14867+P47870); experiment: biochemical; format: binding; details: read-out: % Inhibition of Control Specific Binding
# [2] = molecular target: MCH1 (h) (Homo sapiens, UniProt Q99705); experiment: biochemical; details: read-out: % Inhibition of Control Specific Binding
# [3] = molecular target: N muscle-type (h) (Homo sapiens, UniProt P02708+P07510+Q07001); experiment: biochemical; details: read-out: % Inhibition of Control Specific Binding
# [4] = molecular target: 5-HT2B (h) (Homo sapiens, UniProt P41595); experiment: biochemical; format: binding; details: read-out: % Inhibition of Control Specific Binding
# Chain of 5-HT2B (h) (P41595 whole entry): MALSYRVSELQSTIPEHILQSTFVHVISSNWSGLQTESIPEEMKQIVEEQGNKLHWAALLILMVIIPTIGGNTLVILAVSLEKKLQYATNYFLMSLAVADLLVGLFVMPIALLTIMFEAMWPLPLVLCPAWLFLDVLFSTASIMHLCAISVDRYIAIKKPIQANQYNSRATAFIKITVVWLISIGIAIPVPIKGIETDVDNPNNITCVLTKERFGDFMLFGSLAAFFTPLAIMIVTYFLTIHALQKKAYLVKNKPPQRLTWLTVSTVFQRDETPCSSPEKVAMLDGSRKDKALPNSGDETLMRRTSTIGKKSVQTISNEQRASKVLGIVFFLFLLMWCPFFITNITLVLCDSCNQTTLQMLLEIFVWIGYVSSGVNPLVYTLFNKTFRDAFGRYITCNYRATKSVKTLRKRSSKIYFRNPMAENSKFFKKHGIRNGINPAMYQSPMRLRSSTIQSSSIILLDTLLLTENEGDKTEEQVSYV
# [5] = molecular target: mu (MOP) (h) (Homo sapiens, UniProt P35372); experiment: biochemical; details: read-out: % Inhibition of Control Specific Binding
# Chain of mu (MOP) (h) (P35372 whole entry): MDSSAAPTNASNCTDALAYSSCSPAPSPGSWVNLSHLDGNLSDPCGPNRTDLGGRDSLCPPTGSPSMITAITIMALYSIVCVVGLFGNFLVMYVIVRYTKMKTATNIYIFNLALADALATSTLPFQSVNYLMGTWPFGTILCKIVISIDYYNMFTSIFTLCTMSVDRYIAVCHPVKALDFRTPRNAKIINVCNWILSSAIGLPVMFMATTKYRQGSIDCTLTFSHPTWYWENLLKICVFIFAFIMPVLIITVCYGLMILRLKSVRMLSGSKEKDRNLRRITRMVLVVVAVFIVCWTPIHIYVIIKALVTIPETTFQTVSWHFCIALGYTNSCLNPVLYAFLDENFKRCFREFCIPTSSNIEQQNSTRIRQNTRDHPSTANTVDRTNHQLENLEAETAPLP
# [6] = molecular target: N neuronal alpha 4beta 2 (h) (Homo sapiens, UniProt P17787+P43681); experiment: biochemical; details: read-out: % Inhibition of Control Specific Binding
# [7] = molecular target: VPAC1 (VIP1) (h) (Homo sapiens, UniProt P32241); experiment: biochemical; details: read-out: % Inhibition of Control Specific Binding
# [8] = molecular target: EP2 (h) (Homo sapiens, UniProt P43116); experiment: biochemical; details: read-out: % Inhibition of Control Specific Binding
# [9] = molecular target: CRF1 (h) (Homo sapiens, UniProt P34998); experiment: biochemical; format: binding; details: read-out: % Inhibition of Control Specific Binding
# Chain of CRF1 (h) (P34998 24-415): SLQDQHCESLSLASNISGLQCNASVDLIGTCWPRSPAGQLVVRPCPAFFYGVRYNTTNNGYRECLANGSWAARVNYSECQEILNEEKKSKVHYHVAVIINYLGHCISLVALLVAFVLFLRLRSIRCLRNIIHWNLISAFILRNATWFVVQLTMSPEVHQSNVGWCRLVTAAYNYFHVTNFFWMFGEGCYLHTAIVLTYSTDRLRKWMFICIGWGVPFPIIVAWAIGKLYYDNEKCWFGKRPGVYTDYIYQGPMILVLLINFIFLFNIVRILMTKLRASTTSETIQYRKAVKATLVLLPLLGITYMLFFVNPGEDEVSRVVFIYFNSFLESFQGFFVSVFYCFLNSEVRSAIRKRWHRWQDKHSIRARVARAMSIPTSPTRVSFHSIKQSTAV
# [10] = molecular target: full-length GFP-tagged BRD4 in U2OS cells (Homo sapiens, UniProt O60885); format: cell-based
# [11] = molecular target: M3 (h) (Homo sapiens, UniProt P20309); experiment: biochemical; details: read-out: % Inhibition of Control Specific Binding
# [12] = molecular target: MT3 (ML2) (Mesocricetus auratus, UniProt A0ABM2YAB8); experiment: biochemical; format: binding; details: read-out: % Inhibition of Control Specific Binding
# [13] = molecular target: A2B (h) (Homo sapiens, UniProt P29275); experiment: biochemical; details: read-out: % Inhibition of Control Specific Binding
# Chain of A2B (h) (P29275 whole entry): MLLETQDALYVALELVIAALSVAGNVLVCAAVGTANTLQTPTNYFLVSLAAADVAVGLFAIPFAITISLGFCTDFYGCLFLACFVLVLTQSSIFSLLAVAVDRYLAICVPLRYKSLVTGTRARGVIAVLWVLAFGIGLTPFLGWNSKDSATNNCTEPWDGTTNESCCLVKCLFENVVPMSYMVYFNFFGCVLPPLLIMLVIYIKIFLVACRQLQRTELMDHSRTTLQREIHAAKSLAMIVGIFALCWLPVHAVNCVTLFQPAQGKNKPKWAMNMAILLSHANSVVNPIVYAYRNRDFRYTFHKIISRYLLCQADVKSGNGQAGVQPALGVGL
# [14] = molecular target: D1 (h) (Homo sapiens, UniProt P21728); experiment: biochemical; details: read-out: % Inhibition of Control Specific Binding
# [15] = molecular target: BLT1 (LTB4) (h) (Homo sapiens, UniProt Q15722); experiment: biochemical; details: read-out: % Inhibition of Control Specific Binding
# Chain of BLT1 (LTB4) (h) (Q15722 whole entry): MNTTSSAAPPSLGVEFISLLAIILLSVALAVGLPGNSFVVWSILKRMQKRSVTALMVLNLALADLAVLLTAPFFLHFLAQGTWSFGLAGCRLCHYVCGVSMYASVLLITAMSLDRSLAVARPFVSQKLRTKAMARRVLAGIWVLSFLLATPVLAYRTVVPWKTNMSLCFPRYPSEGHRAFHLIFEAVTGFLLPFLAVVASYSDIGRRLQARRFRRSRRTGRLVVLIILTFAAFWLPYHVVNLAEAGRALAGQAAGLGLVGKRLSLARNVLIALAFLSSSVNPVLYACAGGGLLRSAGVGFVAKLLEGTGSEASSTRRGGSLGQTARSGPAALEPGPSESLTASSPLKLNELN
# [16] = molecular target: T1, TIF1A (Homo sapiens, UniProt O15164); format: binding
# T1 construct: Human BRDs were subcloned into bacteria-expressing vectors; made in house; host or cells: bacteria
# T1 sequence (O15164 899-1004 limits assumed): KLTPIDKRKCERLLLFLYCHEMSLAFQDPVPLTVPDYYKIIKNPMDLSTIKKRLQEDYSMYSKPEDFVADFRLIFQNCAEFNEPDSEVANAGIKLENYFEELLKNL
# [17] = molecular target: alpha 2A (h) (Homo sapiens, UniProt P08913); experiment: biochemical; details: read-out: % Inhibition of Control Specific Binding
# [18] = molecular target: NK2 (h) (Homo sapiens, UniProt P21452); experiment: biochemical; details: read-out: % Inhibition of Control Specific Binding
# [19] = system: NMDA; experiment: CEREP binding, antagonist radioligand
# [20] = molecular target: Y1 (h) (Homo sapiens, UniProt P25929); experiment: biochemical; details: read-out: % Inhibition of Control Specific Binding
# Chain of Y1 (h) (P25929 whole entry): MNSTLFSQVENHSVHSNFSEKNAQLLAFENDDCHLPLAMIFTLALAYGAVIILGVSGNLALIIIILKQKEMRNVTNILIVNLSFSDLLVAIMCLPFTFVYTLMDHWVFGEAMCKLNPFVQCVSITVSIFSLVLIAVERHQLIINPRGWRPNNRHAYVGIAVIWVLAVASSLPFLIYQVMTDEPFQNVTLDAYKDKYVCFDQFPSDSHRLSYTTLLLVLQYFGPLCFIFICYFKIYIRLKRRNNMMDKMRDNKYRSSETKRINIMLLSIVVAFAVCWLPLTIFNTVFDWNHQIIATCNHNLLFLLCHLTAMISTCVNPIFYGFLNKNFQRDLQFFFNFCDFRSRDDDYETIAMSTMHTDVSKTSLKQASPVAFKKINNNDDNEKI
# [21] = system: MV4;11; experiment: cells; format: cell-based, human; details: Homo sapiens, MV4-11, 72 h, read-out: IC50, cell proliferation
# [22] = molecular target: AT2 (h) (Homo sapiens, UniProt P50052); experiment: biochemical; details: read-out: % Inhibition of Control Specific Binding
# Chain of AT2 (h) (P50052 whole entry): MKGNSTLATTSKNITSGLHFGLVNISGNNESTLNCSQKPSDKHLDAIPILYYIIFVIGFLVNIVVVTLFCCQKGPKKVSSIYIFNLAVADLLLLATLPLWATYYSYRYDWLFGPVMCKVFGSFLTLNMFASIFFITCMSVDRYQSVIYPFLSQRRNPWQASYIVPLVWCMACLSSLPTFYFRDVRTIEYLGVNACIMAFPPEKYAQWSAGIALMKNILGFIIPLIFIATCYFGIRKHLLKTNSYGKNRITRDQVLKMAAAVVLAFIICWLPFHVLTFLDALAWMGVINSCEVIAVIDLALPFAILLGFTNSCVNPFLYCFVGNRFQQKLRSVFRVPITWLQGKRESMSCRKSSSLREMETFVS
# [23] = molecular target: alpha 2C (h) (Homo sapiens, UniProt P18825); experiment: biochemical; details: read-out: % Inhibition of Control Specific Binding
# [24] = molecular target: GCN5L2 (Homo sapiens, UniProt Q92830); format: binding; details: pH 7.5
# Chain of GCN5L2 (Q92830 728-832): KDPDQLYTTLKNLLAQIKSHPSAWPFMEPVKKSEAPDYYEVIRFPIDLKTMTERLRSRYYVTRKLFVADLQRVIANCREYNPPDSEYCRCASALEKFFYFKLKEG
# [25] = molecular target: 5-HT6 (h) (Homo sapiens, UniProt P50406); experiment: biochemical; details: read-out: % Inhibition of Control Specific Binding
# [26] = molecular target: BRD3(2) (Homo sapiens, UniProt Q15059); format: binding
# Chain of BRD3(2) (Q15059 306-415 limits assumed): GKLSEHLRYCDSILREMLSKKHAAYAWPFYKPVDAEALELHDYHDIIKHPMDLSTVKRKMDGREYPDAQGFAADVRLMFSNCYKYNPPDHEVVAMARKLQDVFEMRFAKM
# [27] = system: kainate; format: binding
# [28] = molecular target: sst1 (h) (Homo sapiens, UniProt P30872); experiment: biochemical; details: read-out: % Inhibition of Control Specific Binding
# [29] = molecular target: ETB (h) (Homo sapiens, UniProt P24530); experiment: biochemical; details: read-out: % Inhibition of Control Specific Binding
# Chain of ETB (h) (P24530 27-442): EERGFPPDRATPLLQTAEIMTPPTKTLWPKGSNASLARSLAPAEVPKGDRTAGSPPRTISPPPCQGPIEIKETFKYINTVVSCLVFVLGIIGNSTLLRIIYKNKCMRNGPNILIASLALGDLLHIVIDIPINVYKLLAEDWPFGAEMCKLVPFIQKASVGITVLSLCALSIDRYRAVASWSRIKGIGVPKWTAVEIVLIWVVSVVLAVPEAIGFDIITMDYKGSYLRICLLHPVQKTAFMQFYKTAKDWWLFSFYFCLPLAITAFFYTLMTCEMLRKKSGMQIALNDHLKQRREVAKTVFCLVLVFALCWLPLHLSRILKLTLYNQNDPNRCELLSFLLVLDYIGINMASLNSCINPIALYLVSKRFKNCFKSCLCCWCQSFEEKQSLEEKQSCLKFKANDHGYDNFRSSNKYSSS
# [30] = molecular target: T2, BAZ2B (Homo sapiens, UniProt Q9UIF8); format: binding; details: pH 7.5
# T2 construct: Human BRDs were subcloned into bacteria-expressing vectors; made in house
# T2 sequence (Q9UIF8 2060-2164 limits assumed): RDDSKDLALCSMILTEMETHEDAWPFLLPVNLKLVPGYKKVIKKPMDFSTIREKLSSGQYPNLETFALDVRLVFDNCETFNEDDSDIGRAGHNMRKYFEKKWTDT
# [31] = molecular target: glycine (strychnine-insensitive) (Rattus norvegicus, UniProt P35439); experiment: biochemical; details: read-out: % Inhibition of Control Specific Binding
# Chain of glycine (strychnine-insensitive) (P35439 394-863): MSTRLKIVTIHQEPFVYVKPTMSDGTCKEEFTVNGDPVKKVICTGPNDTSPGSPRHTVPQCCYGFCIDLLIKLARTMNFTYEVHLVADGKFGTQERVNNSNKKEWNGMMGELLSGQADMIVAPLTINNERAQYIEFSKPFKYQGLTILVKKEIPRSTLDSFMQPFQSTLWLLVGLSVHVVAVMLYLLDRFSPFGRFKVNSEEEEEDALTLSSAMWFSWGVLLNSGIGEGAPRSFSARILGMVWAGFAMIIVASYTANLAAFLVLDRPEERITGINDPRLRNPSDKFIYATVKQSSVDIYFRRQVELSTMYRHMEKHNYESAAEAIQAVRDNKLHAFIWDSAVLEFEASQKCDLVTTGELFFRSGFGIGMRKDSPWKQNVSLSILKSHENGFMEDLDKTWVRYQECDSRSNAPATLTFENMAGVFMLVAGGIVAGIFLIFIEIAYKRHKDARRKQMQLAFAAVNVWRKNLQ
# [32] = molecular target: M4 (h) (Homo sapiens, UniProt P08173); experiment: biochemical; details: read-out: % Inhibition of Control Specific Binding
# [33] = molecular target: dopamine transporter (h) (Homo sapiens, UniProt Q01959); experiment: biochemical; details: read-out: % Inhibition of Control Specific Binding
# [34] = molecular target: 5-HT7 (h) (Homo sapiens, UniProt P34969); experiment: biochemical; details: read-out: % Inhibition of Control Specific Binding
# Chain of 5-HT7 (h) (P34969 whole entry): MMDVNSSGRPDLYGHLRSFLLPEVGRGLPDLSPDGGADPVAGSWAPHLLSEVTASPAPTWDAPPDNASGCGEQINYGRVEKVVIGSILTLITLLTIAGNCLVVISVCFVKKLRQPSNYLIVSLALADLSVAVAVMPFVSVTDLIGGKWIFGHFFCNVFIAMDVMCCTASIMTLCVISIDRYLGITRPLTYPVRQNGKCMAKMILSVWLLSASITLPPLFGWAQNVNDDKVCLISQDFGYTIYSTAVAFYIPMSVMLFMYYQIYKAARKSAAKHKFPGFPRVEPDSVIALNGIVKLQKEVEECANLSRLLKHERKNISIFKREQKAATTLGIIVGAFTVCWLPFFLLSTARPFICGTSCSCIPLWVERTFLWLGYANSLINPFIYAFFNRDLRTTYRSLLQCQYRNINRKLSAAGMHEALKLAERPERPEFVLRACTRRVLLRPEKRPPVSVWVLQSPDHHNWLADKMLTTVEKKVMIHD
# [35] = system: K562; format: cell-based, human
# [36] = molecular target: PPARgamma (h) (Homo sapiens, UniProt P37231); experiment: biochemical; details: read-out: % Inhibition of Control Specific Binding
# [37] = molecular target: AT1 (h) (Homo sapiens, UniProt P30556); experiment: biochemical; details: read-out: % Inhibition of Control Specific Binding
# [38] = molecular target: LXRbeta (h) (Homo sapiens, UniProt P55055); experiment: biochemical; format: binding; details: read-out: % Inhibition of Control Specific Binding
# Chain of LXRbeta (h) (P55055 whole entry): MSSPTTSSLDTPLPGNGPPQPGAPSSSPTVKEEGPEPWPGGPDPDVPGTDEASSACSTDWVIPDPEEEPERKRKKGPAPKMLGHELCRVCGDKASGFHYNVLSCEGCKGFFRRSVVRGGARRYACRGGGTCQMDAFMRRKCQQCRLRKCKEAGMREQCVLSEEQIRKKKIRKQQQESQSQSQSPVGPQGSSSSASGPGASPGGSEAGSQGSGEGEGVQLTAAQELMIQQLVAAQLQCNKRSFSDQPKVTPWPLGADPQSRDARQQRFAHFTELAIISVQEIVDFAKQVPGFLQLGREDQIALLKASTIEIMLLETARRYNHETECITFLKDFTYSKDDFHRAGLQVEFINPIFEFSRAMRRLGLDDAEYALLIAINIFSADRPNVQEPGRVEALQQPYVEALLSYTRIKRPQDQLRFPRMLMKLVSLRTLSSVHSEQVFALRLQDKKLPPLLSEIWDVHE
smiles,measurement,setting,value
"CCOC(=O)Nc1cc(-c2ccc(C)c(NS(C)(=O)=O)c2)nn2c(C)nnc12 [BSP, ethyl (3-methyl-6-(4-methyl-3-(methylsulfonamido)phenyl)-[1,2,4]triazolo[4,3-b]pyridazin-8-yl)carbamate]",inhibition at 10 µM,[1],11%
same,inhibition at 10 µM,[2],17%
same,inhibition at 10 µM,[3],-7%
same,inhibition at 10 µM,[4],7%
same,inhibition at 10 µM,[5],1%
same,inhibition at 10 µM,[6],-7%
same,inhibition at 10 µM,[7],0%
same,inhibition at 10 µM,[8],16%
same,inhibition at 10 µM,[9],-50%
same,"FRAP, chromatin interaction of BRD4",[10],displacement of proteins from chromatin
same,inhibition at 10 µM,[11],5%
same,inhibition at 10 µM,[12],103%
same,inhibition at 10 µM,[13],-5%
same,inhibition at 10 µM,[14],-13%
same,inhibition at 10 µM,[15],3%
same,N,[16],1.09 ± 0.029
same,TΔS,[16],4.06 kcal/mol
same,ΔG,[16],-6.67 kcal/mol
same,ΔH^obs,[16],-2.61 ± 0.088 kcal/mol
same,inhibition at 10 µM,[17],7%
same,inhibition at 10 µM,[18],6%
same,% Inhibition of Control Specific Binding,[19],-2
same,inhibition at 10 µM,[20],-10%
same,IC50,[21],579 nM
same,inhibition at 10 µM,[22],2%
same,inhibition at 10 µM,[23],3%
same,KD,[24],Weak binding
same,inhibition at 10 µM,[25],-2%
same,N,[26],1.11 ± 0.003
same,TΔS,[26],1.01 kcal/mol
same,ΔH^obs,[26],-8.62 ± 0.041 kcal/mol
same,% Inhibition of Control Specific Binding,[27],-4
same,inhibition at 10 µM,[28],-6%
same,inhibition at 10 µM,[29],-15%
same,KD,[30],Weak binding
same,inhibition at 10 µM,[31],6%
same,inhibition at 10 µM,[32],-6%
same,inhibition at 10 µM,[33],28%
same,inhibition at 10 µM,[34],7%
same,effect on cell cycle,[35],little effect on cell cycle
same,inhibition at 10 µM,[36],3%
same,inhibition at 10 µM,[37],-1%
same,inhibition at 10 µM,[38],-9%
